8 compounds from patent publication US12156880B2, “Heterocyclic RIP1 kinase inhibitors” (Rigel Pharmaceuticals, Inc., priority 2021, dated 2024) can be followed below.

Experiment [1] relates to U937 cells. In words: U937 cell necroptosis assay (TNFa + zVAD, CellTiter-Glo recovery). Type of experiment: cell-based. The following applies: Homo sapiens, U-937, 18 h, TNFa 2 ng/mL + zVAD-fmk, read-out: U937 Zvad TNF CTG Recovery, U937, TNFa + zVAD (IC50). In short, it runs like this: (§1)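 Human U937 (50K/well, 60 uM zVAD-fmk medium, plated same day) or murine L929 (10K/well, plated 18 h, then 40 uM zVAD-fmk medium) were grown in RPMI with 10% FBS. Both were pretreated with compound for 1 h at 37 °C before TNFa at 2 ng/mL final. Viability was read by CellTiter-Glo luminescence after 18 h.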

The target in experiment [2] is T1, RIPK1 (Homo sapiens, UniProt Q13546).
T1 sequence (Q13546 1-671): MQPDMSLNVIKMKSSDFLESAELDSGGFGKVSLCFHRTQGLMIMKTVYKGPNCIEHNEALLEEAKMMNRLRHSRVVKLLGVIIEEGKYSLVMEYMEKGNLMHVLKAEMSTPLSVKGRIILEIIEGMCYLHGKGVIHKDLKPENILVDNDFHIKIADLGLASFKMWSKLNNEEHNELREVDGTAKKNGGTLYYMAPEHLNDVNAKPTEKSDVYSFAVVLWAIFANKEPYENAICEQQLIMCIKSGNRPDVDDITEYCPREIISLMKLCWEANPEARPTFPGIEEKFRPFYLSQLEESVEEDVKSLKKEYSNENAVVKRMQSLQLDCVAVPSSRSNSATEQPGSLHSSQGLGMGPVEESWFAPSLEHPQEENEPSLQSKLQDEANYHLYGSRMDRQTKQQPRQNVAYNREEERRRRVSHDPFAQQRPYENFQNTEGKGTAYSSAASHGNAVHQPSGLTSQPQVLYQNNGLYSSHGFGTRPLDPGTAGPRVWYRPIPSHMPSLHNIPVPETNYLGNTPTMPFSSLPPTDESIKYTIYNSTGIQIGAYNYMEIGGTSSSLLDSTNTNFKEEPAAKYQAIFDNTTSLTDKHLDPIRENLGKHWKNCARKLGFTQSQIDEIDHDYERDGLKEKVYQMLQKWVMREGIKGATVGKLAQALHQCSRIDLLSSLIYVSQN
In words: RIPK1 ADP-Glo biochemical kinase assay. The following applies: read-out: RIPK1 ADP-Glo Kinase (IC50). In short, it runs like this:
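RIPK1 at 31 ng/well in Tris pH 7.4 buffer with MgCl2, BSA, DTT and MnCl2, reacted with compounds (duplicate) for 30 min at 30 °C. ADP formed detected by ADP-Glo: 40 min stop/depletion, then 30 min detection reagent at room temperature; luminescence read.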

Experiment [3] deals with L929 cells. In words: L929 cell necroptosis assay (TNFa + zVAD, CellTiter-Glo recovery). It is filed as cell-based, murine. The following applies: Mus musculus, L929, 18 h, TNFa 2 ng/mL + zVAD-fmk, read-out: L929-CTG-recovery, L929, TNFa + zVAD (IC50). A digest of the protocol:
as §1

For `CN1C(=O)[C@@H](NC(=O)n2cc(Cc3ccncc3)cn2)COc2ccc(C#CC(C)(C)O)cc21` [I-29, (S)—N-(7-(3-Hydroxy-3-methylbut-1-yn-1-yl)-5-methyl-4-oxo-2,3,4,5-tetrahydrobenzo[b][1,4]oxazepin-3-yl)-4-(pyridin-4-ylmethyl)-1H-pyrazole-1-carboxamide], the IC50 turned out to be 47.2 nM in experiment [1], 69.4 nM in experiment [2] and 1720 nM in experiment [3].
For `CN1C(=O)[C@@H](NC(=O)c2cc(Oc3cnn(C)c3)ccn2)COc2ccc(C#CC3(O)COC3)cc21` [I-127, (S)—N-(7-((3-hydroxyoxetan-3-yl)ethynyl)-5-methyl-4-oxo-2,3,4,5-tetrahydrobenzo[b][1,4]oxazepin-3-yl)-4-((1-methyl-1H-pyrazol-4-yl)oxy)picolinamide], the values for the 50% inhibitory concentration (IC50) in experiment [1], in experiment [2] and in experiment [3] were 6.7 nM, 15 nM and 198 nM, respectively.
In the case of `CN1C(=O)[C@@H](NC(=O)n2cc(Cc3cccc(F)n3)cn2)COc2ccc(C#CC(C)(C)C3CCOCC3)cc21` [I-107, (S)-4-((6-Fluoropyridin-2-yl)methyl)-N-(5-methyl-7-(3-methyl-3-(tetrahydro-2H-pyran-4-yl)but-1-yn-1-yl)-4-oxo-2,3,4,5-tetrahydrobenzo[b][1,4]oxazepin-3-yl)-1H-pyrazole-1-carboxamide], the half-inhibitory concentration (IC50) in experiment [1] worked out at 2 nM; in experiment [2], 53.8 nM; in experiment [3], 307 nM.
For `CN1C(=O)[C@@H](NC(=O)n2cc(Cc3cccnc3F)cn2)COc2ccc(C#CC3(O)CCC3)cc21` [I-48, (S)-4-((2-Fluoropyridin-3-yl)methyl)-N-(7-((1-hydroxycyclobutyl)ethynyl)-5-methyl-4-oxo-2,3,4,5-tetrahydrobenzo[b][1,4]oxazepin-3-yl)-1H-pyrazole-1-carboxamide], the 50% inhibitory concentration (IC50) in experiment [1] came out at 24.9 nM; in experiment [2], 646 nM; in experiment [3] it was 1470 nM.
In the same order, the values of `CN1C(=O)[C@@H](NC(=O)c2cc(Cc3cccc(F)n3)ccn2)COc2ccc(C#CC(C)(C)O)cc21` [I-13, (S)-4-((6-fluoropyridin-2-yl)methyl)-N-(7-(3-hydroxy-3-methylbut-1-yn-1-yl)-5-methyl-4-oxo-2,3,4,5-tetrahydrobenzo[b][1,4]oxazepin-3-yl)picolinamide] are 42 nM, 21.2 nM and 1310 nM.
Take `CN1C(=O)[C@@H](NC(=O)n2cc(Cc3cccc(C(F)(F)F)n3)cn2)COc2ccc(C#CC(C)(C)O)cc21` [I-9, (S)—N-(7-(3-Hydroxy-3-methylbut-1-yn-1-yl)-5-methyl-4-oxo-2,3,4,5-tetrahydrobenzo[b][1,4]oxazepin-3-yl)-4-((6-(trifluoromethyl)pyridin-2-yl)methyl)-1H-pyrazole-1-carboxamide]: the IC50 in experiment [1] was 163 nM; in experiment [2], 64.3 nM; in experiment [3] it was 2690 nM.
In the case of `CN1C(=O)[C@@H](NC(=O)c2cc(Oc3cccnc3)ccn2)COc2ccc(C#CC(C)(C)O)cc21` [I-58, (S)—N-(7-(3-hydroxy-3-methylbut-1-yn-1-yl)-5-methyl-4-oxo-2,3,4,5-tetrahydrobenzo[b][1,4]oxazepin-3-yl)-4-(pyridin-3-yloxy)picolinamide], the IC50 in experiment [1] worked out at 3.8 nM; in experiment [2] it was 20.2 nM; in experiment [3], 1180 nM.
For the compound `CN1C(=O)[C@@H](NC(=O)n2cc(Cc3cccc(F)n3)cn2)CCc2ccc(C#CC(C)(C)CO)cc21` [I-115, (S)-4-((6-fluoropyridin-2-yl)methyl)-N-(8-(4-hydroxy-3,3-dimethylbut-1-yn-1-yl)-1-methyl-2-oxo-2,3,4,5-tetrahydro-1H-benzo[b]azepin-3-yl)-1H-pyrazole-1-carboxamide], the IC50 in experiment [1] is 0.5 nM; in experiment [2], 28.3 nM; in experiment [3] it was 38.5 nM.
